Experimental data reported in patent US12410171B2, “Tropomyosin receptor kinase (TRK) degradation compounds and methods of use” (Cullgen (Shanghai), Inc., priority 2020, dated 2025).

Biological target: T1, TPM3-TRKA fusion protein (Homo sapiens, UniProt P04629)
T1 construct: The resulted chimeric proteins always retain the kinase domain of TRK proteins; TPM3 (fusion partner, N-terminal part of tropomyosin alpha-3, P06753); endogenous in cells; host or cells: KM12 colon cancer cells; the other entry of the earlier key: TPM3 (P06753, Tropomyosin alpha-3 chain)
T1 sequence (P04629 with tags, fused parts or gaps): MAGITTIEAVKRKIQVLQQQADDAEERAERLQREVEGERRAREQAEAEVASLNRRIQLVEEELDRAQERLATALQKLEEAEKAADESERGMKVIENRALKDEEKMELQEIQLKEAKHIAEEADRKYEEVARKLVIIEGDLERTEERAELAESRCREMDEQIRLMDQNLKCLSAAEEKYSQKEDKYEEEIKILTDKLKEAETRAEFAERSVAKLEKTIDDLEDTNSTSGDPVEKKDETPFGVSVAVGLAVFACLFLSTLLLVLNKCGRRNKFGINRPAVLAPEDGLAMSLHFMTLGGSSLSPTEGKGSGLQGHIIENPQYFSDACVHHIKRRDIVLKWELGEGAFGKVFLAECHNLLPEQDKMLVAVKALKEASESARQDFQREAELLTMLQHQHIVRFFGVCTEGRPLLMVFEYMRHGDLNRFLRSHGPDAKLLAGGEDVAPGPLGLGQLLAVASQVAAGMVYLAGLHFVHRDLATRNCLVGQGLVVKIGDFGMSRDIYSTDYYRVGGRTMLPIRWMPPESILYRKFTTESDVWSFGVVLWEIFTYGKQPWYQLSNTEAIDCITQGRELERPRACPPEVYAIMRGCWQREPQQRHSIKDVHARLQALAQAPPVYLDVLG
Test: TPM3-TRKA fusion protein levels in KM12 cells (Western blot)
Assay type: cell-based
Conditions: 16 h; TPM3-TRKA degradation in KM12 cells at 10 nM compound, category of percentage degradation; read-out: Degradation (at 10 nM)
Method: KM12 cells were treated with DMSO or indicated compounds at 100 nM for 16 hours.
KM12 cells were treated with DMSO or indicated compounds at 0. 1 nM, 1 nM or 10 nM for 16 hours.
KM12 cells were treated with DMSO or indicated compounds at various concentrations for 16 hours.
KM12 cells were treated with DMSO or indicated compounds at various concentrations for 4 hours.
KM12 cells (a cancer model comprising a colon cancer cell line) were treated with DMSO or indicated compounds at various concentrations for 4 hours.
KM12 cells were treated with heterobifunctional compounds or their corresponding control compounds at 10 nM or 100 nM for 16 hours.
KM12 cells were treated with heterobifunctional compounds or their corresponding control compounds at 0.4-30 nM for 8-16 hours. […] Cells were authenticated using the short tandem repeat (STR) assays. […] Stable cell lines were established by lentivirus transduction, selected and maintained in medium containing 1 μg/mL puromycin (Beyotime Biotechnology).
Cultured cells were washed with cold PBS once and lysed in cold RIPA buffer supplemented with protease inhibitors and phosphatase inhibitors (Beyotime Biotechnology). The solutions were then incubated at 4° C. for 30 minutes with gentle agitation to fully lyse cells. For tumor tissues, tumors were cut into small pieces, milled with cold RIPA buffer using a mechanical homogenizer and lysed for 1 hour at 4° C. Cell lysates were centrifuged at 13,000 rpm for 10 minutes at 4° C. and pellets were discarded. Total protein concentrations in the lysates were determined by BCA assays (Beyotime Biotechnology). Cell lysates were mixed with Laemmli loading buffer to 1× and heated at 99° C. for 5 min. Proteins were resolved on SDS-PAGE and visualized by chemiluminescence. Images were taken by a ChemiDoc MP Imaging system (Bio-Rad). Protein bands were quantitated using the software provided by Bio-Rad.

| percent degradation of TPM3-TRKA protein at 0.01 µM [%] | Compound |
| --- | --- |
| > 80 | O=C1CCC(N2C(=O)c3ccc(CCN4CCN(c5cccc(-c6cnc7ccc(N8CCC[C@@H]8c8cccc(F)c8)nn67)n5)CC4)cc3C2=O)C(=O)N1 (stereo partly drawn) [TR-204, 2-(2,6-dioxopiperidin-3-yl)-5-(2-(4-(6-(6-((R)-2-(3-fluorophenyl)pyrrolidin-1-yl)imidazo[1,2-6]pyridazin-3-yl)pyridin-2-yl)piperazin-1-yl)ethyl)isoindoline-1,3-dione] |
| > 80 | O=C1CCC(N2C(=O)c3cccc(NCCCCC(=O)N4CCN(c5ccc(C(=O)Nc6n[nH]c7ccc(Cc8cc(F)cc(F)c8)cc67)c(NC6CCOCC6)c5)CC4)c3C2=O)C(=O)N1 (centres unmarked) [CPD-050, N-(5-(3,5-Difluorobenzyl)-1H-indazol-3-yl)-4-(4-(5-((2-(2,6-dioxopiperidin-3-yl)-1,3-dioxoisoindolin-4-yl)amino)pentanoyl)piperazin-1-yl)-2-((tetrahydro-2H-pyran-4-yl)amino)benzamide] |
| > 80 | O=C1CCC(N2C(=O)c3cccc(NCCCCCC(=O)N4CCN(c5cccc(-c6cnc7ccc(N8CCC[C@@H]8c8cccc(F)c8)nn67)n5)CC4)c3C2=O)C(=O)N1 (stereo partly drawn) [CPD-015, 2-(2,6-Dioxopiperidin-3-yl)-4-((6-(4-(6-(6-((R)-2-(3-fluorophenyl)pyrrolidin-1-yl)imidazo[1,2-b]pyridazin-3-yl)pyridin-2˜yl)piperazin-1-yl)-6-oxohexyl)amino) isoindoline-1,3-dione] |
| > 80 | O=C1CCC(N2C(=O)c3ccc(NCCCCCCC(=O)N4CCN(c5cccc(-c6cnc7ccc(N8CCC[C@@H]8c8cccc(F)c8)nn67)n5)CC4)cc3C2=O)C(=O)N1 (stereo partly drawn) [TR-117, 2-(2,6-Dioxopiperidin-3-yl)-5-((7-(4-(6-(6-((R)-2-(3-fluorophenyl)pyrrolidin-1-yl)imidazo[1,2-b]pyridazin-3-yl)pyridin-2-yl)piperazin-1-yl)-7-oxoheptyl)amino) isoindoline-1,3-dione] |
| > 80 | O=C1CCC(N2C(=O)c3cccc(NCCCCC(=O)N4CCN(c5cccc(-c6cnc7ccc(N8CCC[C@@H]8c8cccc(F)c8)nn67)n5)CC4)c3C2=O)C(=O)N1 (stereo partly drawn) [CPD-014, 2-(2,6-Dioxopiperidin-3-yl)-4-((5-(4-(6-(6-((R)-2-(3-fluorophenyl)pyrrolidin-1-yl)imidazo[1,2-b]pyridazin-3-yl)pyridin-2-yl)piperazin-1-yl)-5-oxopentyl)amino) isoindoline-1,3-dione] |
| < 50 | Cc1ncsc1-c1ccc(CNC(=O)[C@@H]2C[C@@H](O)CN2C(=O)[C@@H](NC(=O)CCCCCCCNC(=O)CN2CCN(c3ccc(C(=O)Nc4n[nH]c5ccc(Cc6cc(F)cc(F)c6)cc45)c(NC4CCOCC4)c3)CC2)C(C)(C)C)cc1 [CPD-061, (2S,4R)-1-((S)-2-(8-(2-(4-(4-((5-(3,5-Difluorobenzyl)-1H-indazol-3-yl)carbamoyl)-3-((tetrahydro-2H-pyran-4-yl)amino)phenyl)piperazin-1-yl)acetamido)octanamido)-3,3-dimethylbutanoyl)-4-hydroxy-N-(4-(4-methylthiazol-5-yl)benzyl)pyrrolidine-2-carboxamide] |
| 50 to 80 | O=C1CCC(N2Cc3cc(C#CC4CN(c5cccc(-c6cnc7ccc(N8CCC[C@@H]8c8cccc(F)c8)nn67)n5)C4)ccc3C2=O)C(=O)N1 (stereo partly drawn) [TR-219, 3-(5-((1-(6-(6-((R)-2-(3-Fluorophenyl)pyrrolidin-1-yl)imidazo[1,2-b]pyridazin-3-yl)pyridin-2-yl)azetidin-3-yl)ethynyl)-1-oxoisoindolin-2-yl)piperidine-2,6-dione] |
| 50 to 80 | O=C1CCC(N2Cc3cc(C#CC4CCN(c5cccc(-c6cnc7ccc(N8CCC[C@@H]8c8cccc(F)c8)nn67)n5)CC4)ccc3C2=O)C(=O)N1 (stereo partly drawn) [TR-208, 3-(5-((1-(6-(6-((R)-2-(3-fluorophenyl)pyrrolidin-1-yl)imidazo[1,2-b]pyridazin-3-yl)pyridin-2-yl)piperidin-4-yl)ethynyl)-1-oxoisoindolin-2-yl)piperidine-2,6-dione] |
| > 80 | O=C(CN1CCN(c2cccc(-c3cnc4ccc(N5CCC[C@@H]5c5cccc(F)c5)nn34)n2)CC1)NCCOCCOCCOCCOCCNc1ccc2c(c1)C(=O)N(C1CCC(=O)NC1=O)C2=O (stereo partly drawn) [TR-125, N-(14-((2-(2,6-dioxopiperidin-3-yl)-1,3-dioxoisoindolin-5-yl)amino)-3,6,9,12-tetraoxatetradecyl)-2-(4-(6-(6-((R)-2-(3-fluorophenyl)pyrrolidin-1-yl)imidazo[1,2-b]pyridazin-3-yl)pyridin-2-yl)piperazin-1-yl)acetamide] |
| > 80 | O=C1CCC(N2Cc3ccc(NCC(=O)N4CCN(c5cccc(-c6cnc7ccc(N8CCC[C@@H]8c8cccc(F)c8)nn67)n5)CC4)cc3C2=O)C(=O)N1 (stereo partly drawn) [TR-189, 3-(6-((2-(4-(6-(6-((R)-2-(3-fluorophenyl)pyrrolidin-1-yl)imidazo[1,2-b]pyridazin-3-yl)pyridin-2-yl)piperazin-1-yl)-2-oxoethyl)amino)-1-oxoisoindolin-2-yl)piperidine-2,6-dione] |
| 50 to 80 | O=C1CCC(N2C(=O)c3cccc(NCCC(=O)N4CCN(c5cccc(-c6cnc7ccc(N8CCC[C@@H]8c8cccc(F)c8)nn67)n5)CC4)c3C2=O)C(=O)N1 (stereo partly drawn) [CPD-026, 2-(2,6-Dioxopiperidin-3-yl)-4-((3-(4-(6-(6-((R)-2-(3-fluorophenyl)pyrrolidin-1-yl)imidazo[1,2-b]pyridazin-3-yl)pyridin-2-yl)piperazin-1-yl)-3-oxopropyl)amino) isoindoline-1,3-dione] |
| > 80 | O=C(CN1CCN(c2ccc(C(=O)Nc3n[nH]c4ccc(Cc5cc(F)cc(F)c5)cc34)c(NC3CCOCC3)c2)CC1)NCCCCCCCNc1ccc2c(c1)C(=O)N(C1CCC(=O)NC1=O)C2=O (centres unmarked) [TR-157, N-(5-(3,5-Difluorobenzyl)-1H-indazol-3-yl)-4-(4-(2-((7-((2-(2,6-dioxopiperidin-3-yl)-1,3-dioxoisoindolin-5-yl)amino)heptyl)amino)-2-oxoethyl)piperazin-1-yl)-2-((tetrahydro-2H-pyran-4-yl)amino)benzamide] |
| 50 to 80 | Cc1ncsc1-c1ccc(CNC(=O)[C@@H]2C[C@@H](O)CN2C(=O)[C@@H](NC(=O)CCCCC(=O)N2CCN(c3ccc(C(=O)Nc4n[nH]c5ccc(Cc6cc(F)cc(F)c6)cc45)c(NC4CCOCC4)c3)CC2)C(C)(C)C)cc1 [CPD-044] |
| > 80 | O=C(CN1CCN(c2ccc(C(=O)Nc3n[nH]c4ccc(Cc5cc(F)cc(F)c5)cc34)c(NC3CCOCC3)c2)CC1)NCCCCCNc1ccc2c(c1)C(=O)N(C1CCC(=O)NC1=O)C2=O (centres unmarked) [TR-164, N-(5-(3,5-Difluorobenzyl)-1H-indazol-3-yl)-4-(4-(2-((5-((2-(2,6-dioxopiperidin-3-yl)-1,3-dioxoisoindolin-5-yl)amino)pentyl)amino)-2-oxoethyl)piperazin-1-yl)-2-((tetrahydro-2H-pyran-4-yl)amino)benzamide] |
| > 80 | O=C1CCC(N2Cc3cc(NCCN4CCN(c5cccc(-c6cnc7ccc(N8CCC[C@@H]8c8cccc(F)c8)nn67)n5)CC4)ccc3C2=O)C(=O)N1 (stereo partly drawn) [TR-191, 3-(5-((2-(4-(6-(6-((R)-2-(3-fluorophenyl)pyrrolidin-1-yl)imidazo[1,2-b]pyridazin-3-yl)pyridin-2-yl)piperazin-1-yl)ethyl)amino)-1-oxoisoindolin-2-yl)piperidine-2,6-dione] |
| > 80 | O=C1CCC(N2C(=O)c3cccc(NCCOCCOCCOCCOCCOCCC(=O)N4CCN(c5cccc(-c6cnc7ccc(N8CCC[C@@H]8c8cccc(F)c8)nn67)n5)CC4)c3C2=O)C(=O)N1 (stereo partly drawn) [CPD-025, 2-(2,6-Dioxopiperidin-3-yl)-4-((18-(4-(6-(6-((R)-2-(3-fluorophenyl)pyrrolidin-1-yl)imidazo[1,2-b]pyridazin-3-yl)pyridin-2-yl)piperazin-1-yl)-18-oxo-3,6,9,12,15-pentaoxaoctadecyl)amino) isoindoline-1,3-dione] |
| < 50 | Cc1ncsc1-c1ccc(CNC(=O)[C@@H]2C[C@@H](O)CN2C(=O)[C@@H](NC(=O)CCCCCCCCC(=O)N2CCN(c3cccc(-c4cnc5ccc(N6CCC[C@@H]6c6cccc(F)c6)nn45)n3)CC2)C(C)(C)C)cc1 [CPD-017, (28,4R)-1-((S)-2-(10-(4-(6-(6-((R)-2-(3-Fluorophenyl)pyrrolidin-1-yl)imidazo[1,2-b]pyridazin-3-yl)pyridin-2-yl)piperazin-1-yl)-10-oxodecanamido)-3,3-dimethylbutanoyl)-4-hydroxy-N-(4-(4-methylthiazol-S-yl)benzyl)pyrrolidine-2-carboxamide] |
